According to PubChem BioAssay (NCI):
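Compound exposure: 48 hours, 5 concentrations, 96-well plates. TGI denotes the concentration required for complete inhibition of growth.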

Experiments:
Assay in all cases: NCI anticancer screen, dose series, 48 h
A549 NSCLC = system: A549 NSCLC
EKVX NSCLC = system: EKVX NSCLC
HCT-116 colon = system: HCT-116 colon
HCT-15 colon = system: HCT-15 colon
HL-60(TB) leukemia = system: HL-60(TB) leukemia
HOP-62 NSCLC = system: HOP-62 NSCLC
HOP-92 NSCLC = system: HOP-92 NSCLC
M14 melanoma = system: M14 melanoma
NCI-H226 lung = system: NCI-H226 lung
NCI-H522 lung = system: NCI-H522 lung
SF-539 CNS = system: SF-539 CNS
SK-MEL-2 melanoma = system: SK-MEL-2 melanoma
SW-620 colon = system: SW-620 colon
TK-10 renal = system: TK-10 renal
UACC-62 melanoma = system: UACC-62 melanoma
HCC-2998 colon = system: HCC-2998 colon

SMILES | TGI (A549 NSCLC) | TGI (EKVX NSCLC) | TGI (HCT-116 colon) | TGI (HCT-15 colon) | TGI (HL-60(TB) leukemia) | TGI (HOP-62 NSCLC) | TGI (HOP-92 NSCLC) | TGI (M14 melanoma) | TGI (NCI-H226 lung) | TGI (NCI-H522 lung) | TGI (SF-539 CNS) | TGI (SK-MEL-2 melanoma) | TGI (SW-620 colon) | TGI (TK-10 renal) | TGI (UACC-62 melanoma) | TGI (HCC-2998 colon)
COC(=O)C1=C(O)C(C(=O)OC)[C@@]2(O)[C@@H](C(=O)OC)C(c3ccc(OC(=O)/C(=C/c4ccccc4)c4ccccc4)cc3)C[C@@H]1[C@@H]2C(=O)OC (stereo not given in full) | > 100 µM | > 100 µM | > 100 µM | > 100 µM | > 100 µM | > 100 µM | > 100 µM | 33 µM | 42.6 µM | > 100 µM | 8.44 µM | 46.2 µM | > 100 µM | 51.4 µM | 17.2 µM | 
CNNC1=NS(=O)(=O)c2cc(C(=O)OC)c(Cl)cc2S1 | > 10 µM | > 10 µM | > 10 µM | > 10 µM | > 10 µM | > 10 µM |  | > 10 µM | > 10 µM | > 10 µM | > 10 µM | > 10 µM | > 10 µM | > 10 µM | > 10 µM | > 10 µM
CC(=O)C1CC2(c3ccccc3)C(=O)c3ccccc3N2O1 (stereo not given) | > 100 µM | > 100 µM | > 100 µM | > 100 µM | > 100 µM | > 100 µM | > 100 µM | > 100 µM | > 100 µM | > 100 µM | > 100 µM |  | > 100 µM |  | > 100 µM | > 100 µM
Nc1nonc1-c1noc(-c2nonc2N)[n+]1[O-] | 90.7 µM | 82.8 µM | > 100 µM | 49.1 µM |  | > 100 µM | > 100 µM | > 100 µM | > 100 µM | 28 µM |  | > 100 µM | 79.2 µM | > 100 µM | > 100 µM | > 100 µM
O=C(c1cccs1)N(C(=S)OCc1ccccn1)c1ccccc1 |  | 70 µM | > 100 µM | > 100 µM | > 100 µM |  |  | > 100 µM | > 100 µM |  | > 100 µM | > 100 µM | > 100 µM | > 100 µM | > 100 µM | 
Cn1cc(C=C(C#N)C#N)c(=O)n(C)c1=O | > 100 µM | > 100 µM | > 100 µM | > 100 µM |  | > 100 µM | > 100 µM | > 100 µM | > 100 µM | > 100 µM | > 100 µM | > 100 µM | > 100 µM | > 100 µM | > 100 µM | 
O=c1cc2oc3ccc4ccccc4c3cc-2c(=O)[nH]1 | 42.8 µM | 33.8 µM | 31.2 µM | 22.9 µM | 4.18 µM | 25.2 µM |  | 32.2 µM |  | 27.9 µM | 25 µM | 31.6 µM | 5.3 µM |  | 32.5 µM | 31.8 µM
CC1(C)C2CCC1(C)C(NC(=O)CCN1CCOCC1)C2 (stereo not given) | > 100 µM | > 100 µM | > 100 µM |  | > 100 µM | > 100 µM | > 100 µM | > 100 µM | > 100 µM | > 100 µM | > 100 µM |  | > 100 µM | > 100 µM | > 100 µM | > 100 µM
CCCCCCCCCCCCCC/C(=C/OCC[N+](C)(C)C)OC(C)=O (tested in a mixture with another compound) | 6.87 µM | 10.7 µM | 11.2 µM | 19.5 µM | 3.27 µM | 5.8 µM | 3.75 µM | 7.12 µM | 14.7 µM | 5.07 µM | 5.88 µM |  | 17.5 µM | 3.76 µM | 5.25 µM | 13.4 µM
Clc1ccc(OCc2nnc(CCCCCCCCc3nnc(COc4ccc(Cl)cc4)o3)o2)cc1 | > 100 µM | > 100 µM | 28.2 µM | > 100 µM |  |  | > 100 µM | > 100 µM | > 100 µM | > 100 µM |  | > 100 µM | > 100 µM | > 100 µM | > 100 µM | > 100 µM
O=C1C=CC(=O)c2c(O)c(Nc3ccc(OC(F)(F)F)cc3)c(Cl)c(O)c21 | 11.7 µM | 2.17 µM | 0.455 µM | 1.44 µM | 3.24 µM | 2.57 µM |  | 1.22 µM | 3.44 µM | 2.87 µM | 3.36 µM | 3.48 µM | 2.7 µM | 2.81 µM | 2.29 µM | 1.27 µM
O=C(CCNC(=O)OCc1ccccc1)OCCCNC(=O)OCc1ccccc1 | > 100 µM |  | > 100 µM | > 100 µM | > 100 µM | > 100 µM | > 100 µM | > 100 µM | > 100 µM | > 100 µM | > 100 µM |  | > 100 µM | > 100 µM | > 100 µM | > 100 µM
CCN(CC)CCNC(=O)c1ccccc1Nc1c(Cl)cccc1Cl | 32.6 µM | 26.6 µM | 25.7 µM | 26 µM | 25.5 µM | 24.2 µM |  | 34.5 µM | 38.5 µM |  | 32.7 µM |  | 29.6 µM | 24.8 µM | 32.1 µM | 21 µM
S=C(NNC1=NCCCCN1)Nc1ccccc1 | > 100 µM | > 100 µM | 65.8 µM | > 100 µM | > 100 µM | > 100 µM |  | > 100 µM | > 100 µM | > 100 µM | > 100 µM |  |  |  | > 100 µM | > 100 µM
COc1cc(C(CN)N(C)C)cc(OC)c1OC (stereo not given) | > 100 µM | > 100 µM | > 100 µM | > 100 µM | > 100 µM | > 100 µM | > 100 µM | > 100 µM | 71.6 µM | > 100 µM | > 100 µM |  | > 100 µM | > 100 µM | > 100 µM | > 100 µM
COC(=O)[C@@H]1C[C@H]2[C@H](c3ccccc3Br)[C@@H](OC(C)=O)[C@@H](OCc3ccccc3)ON2O1 | > 100 µM | > 100 µM | > 100 µM | > 100 µM |  | > 100 µM |  | > 100 µM |  |  | > 100 µM | > 100 µM | > 100 µM | > 100 µM | > 100 µM | > 100 µM
COc1ccc(-n2c(C)nc3ccc(N=Cc4ccccc4)cc3c2=O)cc1 |  | > 100 µM | > 100 µM | > 100 µM | > 100 µM | > 100 µM |  |  | > 100 µM | > 100 µM |  |  | > 100 µM | > 100 µM | > 100 µM | > 100 µM
